Assays:
Type in all cases: cell-based, human
[1] = tested on: APP-FL, APP-C99 and APP-C83; experiment: Western blot analysis of APP processing in H4-APP-FL cells; conditions: for protein levels of APP-FL / increase in the ratio of APP-C99 to APP-FL / increase in the ratio of APP-C83 to APP-FL: siRNA 48 hours, DAPT 250 nM
Description: (§1) We employed naïve H4 human neuroglioma (H4) cells and H4 cells stably-transfected to express either the APP-FL, or APP-C99. Peptide APP-C99 is the product of β-secretase, which, therefore, contains α- and γ-, but not β-cleavage sites. This cell line provides a valid system to assess whether any effects on APP processing is dependent on γ-secretase-mediated APP processing and independent of β-secretase-mediated APP processing. All cell lines were cultured in DMEM (high glucose) containing 9% heat-inactivated fetal calf serum, 100 units/ml penicillin, 100 μg/ml streptomycin, and 2 mM L-glutamine. Stably transfected H4 cells were additionally supplemented with 200 μg/ml G418.
Small interfering RNA (siRNA) duplexes were designed and obtained from Dharmacon Research, Inc. (Lafayette, CO 80026) against human APBA1, the gene encoding X11α (5′-GGATGCTCAGCTGATTGCA-3′; SEQ ID NO:2), APBA2, the gene encoding X11β (5′-GGTGAAGCTCAACATTGTC-3′; SEQ ID NO:3). Scrambled siRNA (5′-[…]-3α; SEQ ID NO:4) (29) was used as the control siRNA. siRNAs were transfected into cells by using electroporation (AMAXA, Gaithersburg, Md.). We mixed 1 million cells, 100 μl AMAXA electroporation transfection solution and 10 μl 20 μM siRNA together, then we employed C-9 program in the AMAXA electroporation device for the cell transfection. The transfected cells then were placed in one of the six-well plate containing 1.5 ml cell culture media. The cells were harvested 48 hours after siRNA treatments. DAPT (250 nM, 18 hours treatment time), a γ-secretase inhibitor, was employed in the experiments as a positive control.
(§2) Cell pellets were detergent-extracted on ice using immunoprecipitation buffer (10 mM Tris-HCl, pH 7.4, 150 mM NaCl, 2 mM EDTA, 0.5% Nonidet P-40) plus protease inhibitors (1 μg/ml aprotinin, 1 μg/ml leupeptin, 1 μg/ml pepstatin A). The lysates were collected, centrifuged at 12,000 rpm for 10 min, and quantified for total proteins by the BCA protein assay kit (Pierce, Rockford, Ill.).
Western blot analysis was performed as described by Xie et al. (30). Briefly, 40 μg of total protein of each sample was subjected to SDS-polyacrylamide gel electrophoresis using 4-20% gradient Tris/glycine gels under reducing conditions (Invitrogen, Carlsbad, Calif.). Next, proteins were transferred to a polyvinylidene difluoride membrane (Bio-Rad, Hercules, Calif.) using a semi-dry electrotransfer system (Amersham Biosciences, San Francisco, Calif.). Nonspecific proteins were blocked using 5% non-fat dry milk in TBST for 1.5 h. Blots were then incubated with a primary antibody, followed by a secondary antibody (horseradish peroxidase-conjugated anti-rabbit antibody 1:10,000; Pierce, Rockford, Ill.). Blots were washed with 1× TBST for 30 min between steps. Antibody H-265 (1:200, Santa Cruz Biotechnology, Santa Cruz, Calif.) was used to recognize X11α (105 kDa), antibody N-20 (1:100, Santa Cruz Biotechnology, Santa Cruz, Calif.) was used to detect X11β (135 kDa). Antibody A8717 (1:1,000, Sigma, St. Louis, Mo.) was used to visualize APP-FL (110 kDa), […] in the Western blot analysis. The intensity of signals was analyzed using an image program (NIH Image 1.62). We quantified the Western blots as follows. We used the levels of β-actin to normalize the levels of X11α, X11β, APP-FL and APP-CTF (i.e., determining the ratio of X11α amount to β-actin amount) to control for loading differences in total protein amounts. We present the changes in the protein levels of X11α, X11β, APP-FL, APP-C99 and APP-C83 in the cells treated with APBA1 or APBA2 siRNA as the percentage of those in the cells treated with control siRNA.
We next assessed the effects of RNAi-mediated silencing of APBA1 on APP processing in H4-APP-FL cells by measuring protein levels of APP-FL, APP-C99 and APP-C83 following APBA1 siRNA treatment. […]

Aβ40 [2] = experiment: Sandwich ELISA of secreted Aβ in conditioned media of H4-APP-FL cells
Description: as §1
Small interfering RNA (siRNA) duplexes were designed and obtained from Dharmacon Research, Inc. (Lafayette, CO 80026) against human APBA1, the gene encoding X11α (5′-GGATGCTCAGCTGATTGCA-3′; SEQ ID NO:2), APBA2, the gene encoding X11β (5′-GGTGAAGCTCAACATTGTC-3′; SEQ ID NO:3). Scrambled siRNA (5′-[…]-3α; SEQ ID NO:4) (29) was used as the control siRNA. siRNAs were transfected into cells by using electroporation (AMAXA, Gaithersburg, Md.). […]
(§3) Following the treatment with saline, electroporation, control siRNA, APBA1 siRNA or APBA2 siRNA, conditioned media was collected, and secreted Aβ was measured by a Sandwich ELISA assay as described by Xie et al. (30). […] Plates were then developed with TMB reagent and well absorbance measured at 450 nm. Aβ levels in test samples were determined by comparison with signal from unconditioned media spiked with known quantities of Aβ40 and Aβ42.
Next, we measured Aβ levels in the conditioned media, 48 hours after treatment with control siRNA, APBA1 siRNA or γ-secretase inhibitor DAPT. Since Aβ42 was too low to be detected in many samples, we only present the changes in Aβ40 production from these experiments.
Next, we measured Aβ levels in the conditioned media 48 hours following treatments with control siRNA, APBA2 siRNA or γ-secretase inhibitor DAPT.

[3] = tested on: APP-FL, APP-C99 and APP-C83; experiment: Western blot analysis of APP processing in H4-APP-C99 cells; conditions: data not shown
Description: as §1, with “G418. […]” for “G418.”
as §2
Western blot analysis was performed as described by Xie et al. (30). […] The intensity of signals was analyzed using an image program (NIH Image 1.62). We quantified the Western blots as follows. […]
We next assessed the effects of RNAi-mediated silencing of APBA1 on processing of APP-C99. […]

Aβ40 [4] = experiment: Sandwich ELISA of secreted Aβ in conditioned media of H4-APP-C99 cells; conditions: data not shown
Description: as §1, with “G418. […]” for “G418.”
as §3
We next measured Aβ levels in the conditioned media 48 hours after treatment with either control siRNA or APBA1 siRNA in the H4-APP-C99 cells. […]

Molecule	protein levels of APP-FL ([1]; APBA1 experiment (FIG. 1A), vs control siRNA)	protein levels of APP-FL ([1]; APBA2 experiment (FIG. 2A), vs control siRNA)	increase in the ratio of APP-C99 to APP-FL ([1]; APBA2 experiment, FIG. 2C, vs control treatment) [%]	increase in the ratio of APP-C83 to APP-FL ([1]; APBA2 experiment, FIG. 2D, vs control treatment) [%]	increase in the ratio of APP-C99 to APP-FL ([1]; FIG. 1C, vs control siRNA, normalized to β-actin) [%]	increase in the ratio of APP-C83 to APP-FL ([1]; FIG. 1D, vs control siRNA, normalized to β-actin) [%]	Aβ levels (Aβ40) in conditioned media (Aβ40 [2]; FIG. 1E, 48 hours after treatment, control siRNA treatment 116 pg/ml) [pg/mL]	Aβ production (Aβ40) in conditioned media (Aβ40 [2]; FIG. 2E, 48 hours following treatment, control siRNA 109 pg/ml) [pg/mL]	effect on APP processing as compared to saline treatment [3]	effect on Aβ levels as compared to saline treatment (Aβ40 [4])	effect on APP processing as compared to saline treatment ([1]; data not shown)	effect on Aβ levels as compared to saline treatment (Aβ40 [2]; data not shown)
C[C@H](NC(=O)Cc1cc(F)cc(F)c1)C(=O)N[C@H](C(=O)OC(C)(C)C)c1ccccc1 [DAPT]	no significant differences	no significant difference	270	245	310	250	70	48				
control siRNA: Scrambled siRNA (5′-AAATGTGTGTACGTCTCCTCC-3; SEQ ID NO:4) used as the control siRNA (listed as DNA, chemistry not given here)									did not affect APP processing or alter Aβ levels	did not affect APP processing or alter Aβ levels	did not affect APP processing or alter Aβ levels	did not affect APP processing or alter Aβ levels

From patent publication US20060172964A1, “Methods for reducing amyloid beta levels” (priority 2005, published 2006)
